Like-named read-outs stand apart in the source and are kept apart here.
System: E. histolytica mediated cytotoxicity on HT-29 cell layers
Type: cell-based, Entamoeba histolytica
Settings: for protection of the cell layer (in words): physiologically relevant concentrations of individual HMO
Method: FIG. 2 HMO prevent E. histolytica mediated cytotoxicity in in vitro co-culture with enterocytes. Representative images of methylene blue stained HT-29 cell layers as such (A, left) or cocultured with HM-1 trophozoites in the absence (A, middle) or presence (A, right) of 10 mg/ml HMO. Dose response curve with different concentrations of HMO (B). The O.D 660 nm of methyleneblue cell layers was used as a measure for cytotoxicity. The cytoprotective effect of HMO was calculated as the percent ‘cell rescue’ compared to the untreated coculture (0%). Results are means SEM of 4 independent experiments. Cocultures were incubated with different glycans and cytotoxicity was determined as described above (C). […] HMO rescues cell layers when added to existing cocultures (D). HT-29 cells were cocultured with HM-1 and 20 mg/ml HMO was added at the indicated times of coculture. Cocultures were stopped and cytotoxicity was determined after 2 hrs. Control cell layers were cocultured for 2 hrs in the absence of HMO and were considered to have 0% cell rescue.
FIG. 3 Protection of the HT-29 monolayer by individual HMO. Cell rescue in co-culture treated with physiologically relevant concentrations of individual HMO (A). Symbols represent structures of individual HMO. Cell survival in the presence of equimolar concentrations of LNT, LNFP1 and a mixture of LNFP1, LNFP2, and LNFP3. […] Cytotoxicity assay with 10 mM 2′FL before and after fucosidase digestion (C). 2′FL left untreated or incubated with alpha1, 2 fucosidase was used in cytotoxicity assay. As controls, we used enzyme reaction buffer with inactivated fucosidase (control); equimolar concentrations (10 mM) of Lac, Fuc, or Fuc and Lac combined. Data from cytotoxicity assays are presented as % cell rescue compared to untreated cocultures (0%). Error bars are SEM, stars indicate statistical significance compared to control unless indicated by bars.
FIG. 4 GOS reduces cytotoxicity of trophozoites independent of its lactose content. Cell rescue in cocultures treated with increasing concentrations of GOS (triangles) or its corresponding lactose content (circles)(A). Cytotoxicity assay with GOS fractions (B). Higher numbered (eluted later) fractions contain lower molecular weight carbohydrates. The lactose content of fractions 11 and 12 is indicated above the respective bars. HPLC chromatogram of the original GOS preparation (20% lactose) (upper panel) and of the lactose free GOS (<0.5%) (C). Cytotoxicity assay with increasing concentrations of lactose-free GOS (triangles) and Lac-containing GOS (circles)(D).
HMO prevent enterocyte cytotoxicity by E. histolytica in in vitro cocultures. Previous studies have shown reduced Entamoeba attachment and cytotoxicity in the presence of selected carbohydrates (Cano-Mancera and Lopez-Revilla, 1987; Ravdin and Guerrant, 1981; Bracha and Mirelman, 1984). We tested the effect of HMO on Entamoeba induced cytotoxicity in in vitro cocultures with HT-29 cell layers and calculated the % cell rescue (FIG. 2A). […] The cell protective effect of 20 mg/ml HMO is similar to the effect of 10 mM lactose and better than the effect of 10 mM galactose (FIG. 2C). […] Treatment with 20 mg/ml after 90 min of cocultures could still rescue 31±4.7% of the cell layer.

Compound: 3-sialyl-lactose [3′SL]
- protection of the cell layer (in words): failed to prevent monolayer destruction

Compound: CC(=O)N[C@H]1[C@H]([C@H](O)[C@H](O)CO)O[C@@](OC[C@H]2O[C@@H](O[C@H]3[C@H](O)[C@@H](O)C(O)O[C@@H]3CO)[C@H](O)[C@@H](O)[C@H]2O)(C(=O)O)C[C@@H]1O (stereo partly drawn) [6′SL, 6-sialyl-lactose]
- protection of the cell layer (in words): failed to prevent monolayer destruction

Compound: CC(=O)N[C@H]1[C@H](O[C@H]2[C@@H](O)[C@@H](CO)O[C@@H](O[C@H]3[C@H](O)[C@@H](O)C(O)O[C@@H]3CO)[C@@H]2O)O[C@H](CO)[C@@H](O)[C@@H]1O[C@@H]1O[C@H](CO)[C@H](O)[C@H](O)[C@H]1O[C@@H]1O[C@@H](C)[C@@H](O)[C@@H](O)[C@@H]1O (stereo partly drawn) [LNFP1]
- rescue of enterocytes (in words) (5 mg/ml): no effect
- cell rescue (10 mM): 16.9±1.7%

Compound: CC(=O)N[C@H]1[C@H](O[C@H]2[C@@H](O)[C@@H](CO)O[C@@H](O[C@H]3[C@H](O)[C@@H](O)C(O)O[C@@H]3CO)[C@@H]2O)O[C@H](CO)[C@@H](O)[C@@H]1O[C@@H]1O[C@H](CO)[C@H](O)[C@H](O)[C@H]1O (stereo partly drawn) [LNT, Lacto-N-tetraose]
- cell rescue (5 mg/ml): 49.5±9.2%
- cell rescue (10 mM): 79±8.3%
- protection of the cell layer (in words): significantly protected the cell layer

Compound: OC[C@H]1O[C@@H](O[C@H]2[C@H](O)[C@@H](O)C(O)O[C@@H]2CO)[C@H](O)[C@@H](O)[C@H]1O (stereo partly drawn) [Lactose, lactose]
- prevention of cytotoxicity (in words) (10 mM): significantly prevent cytotoxicity
- effect on cytotoxicity compared with lactose containing GOS (in words) (Lac concentrations present in each GOS sample): significantly lower

Compound: C[C@H](O)[C@@H](O)[C@@H](O)[C@H](O)C=O [fucose]
- prevention of cytotoxicity (in words) (10 mM): no significant effect
- prevention of cytotoxicity (in words) (10 mM, listed as Fucose): do not prevent cytotoxicity

Compound: O=C[C@H](O)[C@@H](O)[C@@H](O)[C@H](O)CO [galactose]
- prevention of cytotoxicity (in words) (10 mM): no significant effect

— US20140079775A1, “AGENTS TO TREAT/PREVENT AMOEBIASIS” (priority 2011, published 2014)
